Experiments:
[1] = target: (Homo sapiens, UniProt P43220); experiment: h-GLP-1 activity assay (cAMP HTRF, HEK293 cells with stable expression of human GLP-1); format: cell-based; settings: relative EC50, 10 nM human GLP-1 set as 100% response, 30 min at 37° C.
Outline: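 HEK293 cells stably expressing human GLP-1 receptor construct exposed to compound 30 min at 37 °C in buffer with 0.1% BSA and 0.5 mM IBMX; cAMP measured by HTRF against a cAMP standard curve. 10 nM human GLP-1 set as 100%; relative EC50 from 4-parameter fit.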

[2] = target: T1, human OATP1B1 (Homo sapiens, UniProt Q9Y6L6); experiment: OATP1B1 inhibition assay (HEK293 cells over-expressing human OATP1B1, substrate estradiol 17-β-D-glucuronide); format: cell-based; settings: 30 min pre-incubation, 10 min coincubation with estradiol 17-β-D-glucuronide
T1 sequence (Q9Y6L6 1-691): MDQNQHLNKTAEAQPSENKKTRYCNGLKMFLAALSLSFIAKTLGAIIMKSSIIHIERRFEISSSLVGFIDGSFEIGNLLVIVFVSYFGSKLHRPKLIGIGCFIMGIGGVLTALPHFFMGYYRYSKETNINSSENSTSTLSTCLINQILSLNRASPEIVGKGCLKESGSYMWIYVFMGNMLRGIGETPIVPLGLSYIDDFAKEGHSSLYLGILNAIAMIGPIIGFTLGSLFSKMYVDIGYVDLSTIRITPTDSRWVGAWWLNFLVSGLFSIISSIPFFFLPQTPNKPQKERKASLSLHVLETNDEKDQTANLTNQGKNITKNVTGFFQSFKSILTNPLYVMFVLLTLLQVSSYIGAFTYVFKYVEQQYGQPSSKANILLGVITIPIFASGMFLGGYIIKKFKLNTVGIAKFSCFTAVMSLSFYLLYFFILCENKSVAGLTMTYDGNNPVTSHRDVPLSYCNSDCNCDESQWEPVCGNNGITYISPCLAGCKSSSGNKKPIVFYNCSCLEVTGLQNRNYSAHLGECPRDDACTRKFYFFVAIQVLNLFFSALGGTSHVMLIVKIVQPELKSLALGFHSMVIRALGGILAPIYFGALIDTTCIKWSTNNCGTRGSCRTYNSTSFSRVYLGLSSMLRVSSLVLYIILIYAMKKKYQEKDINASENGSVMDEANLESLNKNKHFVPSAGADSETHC
Description: HEK293 cells over-expressing human OATP1B1 were used for determining the inhibitory effect of compounds of the application on OATP1B1-mediated transportation. Cells were seeded at a density of 400,000 cells per well in 24-well plates. When reaching confluence of 80˜90%, cells were washed with pre-warmed assay buffer and then pre-incubated with serially diluted test compounds or negative control (NC) or positive inhibitor (PC, Rifampicin) for 30 min, followed by coincubation with the same test compound and OATP1B1 substrate estradiol 17-β-D-glucuronide for 10 min. Cells were washed with pre-cooled buffer, and lysed by freeze-thaw cycles. After extraction by mixture of […] of methanol, the substrate concentration was determined by LC-MS/MS, and protein concentration was determined by BCA method. The substrate transport velocity U is calculated as U=Clysate/(P*T), where Clysate is substrate concentration in lysate, P is protein concentration in lysate, and T is incubation time. Relative transport activity Y is calculated as Y=UTA/UNC. The IC50 value of the tested compounds was calculated by fitting Y to compound concentration using a 4-parameter non-linear regression routine in Prism.

[3] = Pharmacokinetics after oral gavage in fasted SD rats; format: in vivo; settings: rat, 5 mg/kg, plasma
Description: Compounds of the present application were formulated in 10% DMSO/10%/Cremophor EL/15% PEG400/65% 100 mM Glycine-NaOH pH 10, and administered via oral gavage (P0) at the dosages of 5 or 10 mg per kilogram body weight in fasted SD rats. Plasma samples were collected at 0.25, 0.5, 1, 2, 4, 6, 8, and 24 hours post dosing. Compound concentration was determined by LC-MS and pharmacokinetics parameters were calculated by WinNonlin 8.2 using Non-Compartmental Analysis model.

(Homo sapiens, UniProt P43220), sequence (P43220 24-463): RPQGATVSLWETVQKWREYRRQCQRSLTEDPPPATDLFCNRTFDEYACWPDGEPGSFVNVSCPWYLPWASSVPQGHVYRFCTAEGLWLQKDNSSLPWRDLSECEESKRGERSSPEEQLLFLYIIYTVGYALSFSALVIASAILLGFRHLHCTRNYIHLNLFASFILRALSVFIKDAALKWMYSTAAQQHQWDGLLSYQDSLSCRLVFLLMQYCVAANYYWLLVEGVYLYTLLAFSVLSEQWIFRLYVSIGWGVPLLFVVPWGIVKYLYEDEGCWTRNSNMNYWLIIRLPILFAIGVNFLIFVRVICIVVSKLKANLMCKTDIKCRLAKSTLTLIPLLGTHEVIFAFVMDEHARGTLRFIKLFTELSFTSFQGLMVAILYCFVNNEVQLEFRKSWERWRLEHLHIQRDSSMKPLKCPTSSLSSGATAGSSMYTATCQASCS

EC50 [1] [nM]	IC50 [2] [nM]	AUC [3] [ng·h/mL]	Cmax [3] [ng/mL]	bioavailability [3] [%]	Structure (SMILES)
< 20	> 1000				Cc1cc(-n2nc3c(c2-n2ccn(-c4ccc5c(cnn5C)c4F)c2=O)[C@H](C)N(C(=O)c2cc4cc([C@@H]5CCOC(C)(C)C5)ccn4c2C2(c4noc(=O)[nH]4)CC2)CC3)cc(C)c1F (single isomer, unassigned) [Compound 10]
< 20	> 1000	3000	572	26	Cc1cc(-n2nc3c(c2-n2ccn(-c4ccc5c(cnn5C)c4F)c2=O)[C@H](C)N(C(=O)c2cn4cc([C@@H]5CCOC(C)(C)C5)ccc4c2C2(c4noc(=O)[nH]4)CC2)CC3)cc(C)c1F (single isomer, unassigned) [Compound 19]
> 100					Cc1cc(-n2nc3c(c2-n2ccn(-c4ccc5c(cnn5C)c4F)c2=O)CN(C(=O)c2cc4cc(C5CCOCC5)ccc4n2-c2cccc4[nH]nnc24)CC3)cc(C)c1F [Compound 59, 1-(5-(1-(1H-benzo[d][1,2,3]triazol-4-yl)-5-(tetrahydro-2H-pyran-4-yl)-1H-indole-2-carbonyl)-2-(4-fluoro-3,5-dimethylphenyl)-4,5,6,7-tetrahydro-2H-pyrazolo[4,3-c]pyridin-3-yl)-3-(4-fluoro-1-methyl-1H-indazol-5-yl)-1,3-dihydro-2H-imidazol-2-one]

The next lines start with the molecule.

Structure (SMILES)	EC50 [1] [nM]	IC50 [2] [nM]	AUC [3] [ng·h/mL]	Cmax [3] [ng/mL]	bioavailability [3] [%]
C[C@H]1c2c(nn(-c3ccc(F)c(C4CC4)c3)c2-n2ccn(-c3ccc4c(cnn4C)c3F)c2=O)CCN1C(=O)c1cc2cc([C@@H]3CCOC(C)(C)C3)ccn2c1C1(c2noc(=O)[nH]2)CC1 (single isomer, unassigned) [Compound 73]	< 20	> 1000	10200	1700	90
C[C@H]1c2c(nn(-c3ccc(F)c(C4CC4)c3)c2-n2ccn(-c3ccc4c(cnn4C)c3F)c2=O)CCN1C(=O)c1cn2cc([C@@H]3CCOC(C)(C)C3)ccc2c1C1(c2noc(=O)[nH]2)CC1 (single isomer, unassigned) [Compound 76]	< 20	> 1000	5320	962	30
C[C@H]1c2c(nn(-c3ccc(F)c(C4CC4)c3)c2-n2ccn(-c3ccc4c(cnn4C)c3F)c2=O)CCN1C(=O)c1cn2nc([C@@H]3CCOC(C)(C)C3)ccc2c1C1(c2noc(=O)[nH]2)CC1 (single isomer, unassigned) [Compound 90]	< 20	> 1000	3340	1370	59
C[C@H]1c2c(nn(-c3ccc(F)c(C4CC4)c3)c2-n2ccn(-c3ccc4c(cnn4C)c3F)c2=O)CCN1C(=O)c1cn2cc([C@H]3CCOC(C)(C)C3)cc(F)c2c1C1(c2noc(=O)[nH]2)CC1 (single isomer, unassigned) [Compound 91]	< 20	> 1000	2660	738	22
Cc1cc(-c2ccc3c(c2)cc(C(=O)N2CCn4nc(-c5ccc(F)cc5)c(-n5ccn(-c6ccc7c(cnn7C)c6F)c5=O)c4C2)n3Cc2noc(=O)[nH]2)ccn1 [Compound 58, 3-((2-(3-(3-(4-fluoro-1-methyl-1H-indazol-5-yl)-2-oxo-2,3-dihydro-1H-imidazol-1-yl)-2-(4-fluorophenyl)-4,5,6,7-tetrahydropyrazolo[1,5-a]pyrazine-5-carbonyl)-5-(2-methylpyridin-4-yl)-1H-indol-1-yl)methyl)-1,2,4-oxadiazol-5(4H)-one]	< 20				
